Laboratory results as given in US20040229950A1, “Method and composition with conjugated linoleic acid esters” (priority 2002, published 2004).
Values joined by “and” are separate entries in the source; they are usually repeats but may differ in a detail not shown here. Identical values can stand only once.

Tests used:
Human platelets [1] = assay: TXB2 production by platelets pretreated 1 hour with fatty acid/HSA; assay type: cell-based
Method: (§1) The following example illustrates the effect of CLA incorporation into platelet lipids on stimulating the release of endogenous AA and increasing the formation of TXB2. Platelets were prelabeled with either HSA alone or with 25 μM 9Z, 11Z-CLA/HSA for 1 hour at 37° C. After washing, the platelets were incubated for 15 minutes at room temperature, followed by the removal of the supernatants. The supernatants were then assayed for free […] content and TXB2 production. […] When the results of these three experiments are averaged, platelets treated with 9Z, 11Z-CLA stimulated […] release 414±155% and enhanced TXB2 formation 180±30%.
To compare the stimulatory effect of 9Z, 11Z-CLA on platelet TXB2 formation with other fatty acids, platelets were pretreated for 1 hour with HSA (control), or HSA complexed with either 9Z, 11Z-CLA, 9E,11E-CLA, linoleic acid (LA) or stearic acid (SA). The comparative effects of 25 μM 9Z, 11Z-CLA-, 9E, 11E-CLA-, LA- or SA-treated platelets on platelet TXB2 production is shown is FIG. 1. The values are the mean ±SD.

IL-1β-treated HUVECs = assay: 6-ketoPGF1a production from CLA-prelabeled HUVECs; assay type: cell-based, human; details: 25 μM; for HUVEC 6-ketoPGF1a formation fold-stimulation: overnight prelabeling, 15 minutes incubation, mean ± SD, 4 experiments; for range of fold increase in endogenous 6-ketoPGF1a formation: range over four separate experiments
Method: (§2) The following example illustrates the effect of CLA incorporation on 6-ketoPGF1a production from CLA-enriched HUVECs. Following the procedure described by Bordet (1990), IL-1β-treated HUVECs were first pre-enriched during an overnight incubation with human serum albumin (HSA) complexed with either 25 […] 9Z, 11Z-CLA/HSA, 25 μM 10E, 12Z-CLA/HSA or without added fatty acid (control). […] Insignificant differences in cell viabilities (as measured by LDH release) were observed between control cells and cells pretreated with HSA/CLA. After washing, the cells were incubated for 15 minutes, followed by removal of the supernatants, which were then assayed for 6-ketoPGF1a content by EIA. In four separate experiments, control HUVECs produced and released 42-1000 pg/ml of 6-ketoPGF1a.

[2] = system: human umbilical vein endothelial cells (HUVECs); assay: Inhibition of HUVEC 6-ketoPGF1a (PGI2) production by CLA in free fatty acid form; assay type: cell-based; details: CLA in the free fatty acid form
Method: As a consequence, the patent disclosed the use of CLAs to inhibit platelet thromboxane formation or platelet aggregation. […] All of these studies relate to the use of conjugated linoleic acids in the free fatty acid form.
as §2

Human platelets [3] = assay: Release of endogenous AA from platelets prelabeled with CLA/HSA; assay type: cell-based
Method: as §1

Human platelets [4] = assay: TXB2 formation by platelets treated 2 hours with CLA isomer/HSA; assay type: cell-based; details: 25 μM, 2 hours at 37° C.; for TXB2 formation Fold stimulation: mean ± SD, 4 experiments
Method: Human platelets were treated for 2 hours at 37° C. with either HSA complexed with 25 μM of the indicated CLA isomer or with HSA alone. After washing, the platelets were maintained at room temperature for 15 minutes. The supernatants were then removed, the lipid content extracted with chloroform/methanol and the residue, after TLC separation, assayed for TXB2 formation by EIA. The results shown in Table 2 were similar to those obtained with CLA-prelabeled HUVECs. […] Also shown in Table 2 is that the CLA content of the platelet lipids increased from 0.03% to 0.23% after platelet treatment with 9Z, 11Z-CLA/HSA and to 0.66% after 10E, 12Z-CLA/HSA.

[5] = 25 μM, 1 hour pretreatment, versus HSA control, Example 2
[6] = experiment 1, 25 μM, 1 hour at 37° C.

| Compound | HUVEC 6-ketoPGF1a formation fold-stimulation (IL-1β-treated HUVECs) | range of fold increase in endogenous 6-ketoPGF1a formation (IL-1β-treated HUVECs) | inhibition of HUVEC 6-ketoPGF1a / prostacyclin production [2] | stimulation of platelet TXB2 production (FIG. 1) (Human platelets [1]; [5]) | TXB2 formation Fold stimulation (Human platelets [4]) | also measured |
| --- | --- | --- | --- | --- | --- | --- |
| CCCCCCC=CC=CCCCCCCCC(=O)O [9E, 11E-CLA, 9,11-octadecadienoic acid] | – | – | – | – | – | inhibition at 25 µM (Human platelets [1]; Homo sapiens, Platelet, 25 μM, 1 hour pretreatment, versus HSA control, Example 2, read-out: inhibition of TXB2 formation (FIG. 1)): 37% |
| CCCCCCC=CC=CCCCCCCCC(=O)O [9Z, 11Z-CLA, 9,11-octadecadienoic acid] | 8 fold | 1.9-23 fold | but not 9Z, 11Z-CLA isomer, was an effective inhibitor | 4 fold | 2.3 fold and 2.3 ± 1.0 (4) fold | HUVEC 6-ketoPGF1a formation fold-stimulation (IL-1β-treated HUVECs; listed as 9Z, 11Z): 8.1 ± 10 fold; fold increase in TXB2 formation (Human platelets [1]; 25 μM prelabeling, relative to HSA/platelet controls): 2-4 fold and 2 fold; TXB2 Control (%) (Human platelets [1]; 25 μM, 1 hour at 37° C., single experiments No. 1-3, relative to HSA alone, listed as HSA + ZZ): 146% and 192% and 203%; activity at 25 µM (Human platelets [1]; Homo sapiens, Platelet, 25 μM, 1 hour, mean ± S.D. of three experiments, read-out: TXB2 formation, % of control, summary of experiments #1-3): 180 ± 30%; TXB2 formation (Human platelets [1]; [6]): 0.36 ng/mL; activity at 25 µM (Human platelets [3]; Homo sapiens, Platelet, 1 hour, mean ± S.D. of three experiments, read-out: AA release, % of control, summary of experiments #1-3): 414 ± 155%; AA release (Human platelets [3]; [6]): 27 µg/mL |
| CCCCC/C=C\C/C=C\CCCCCCCC(=O)O [LA, linoleic acid] | – | – | – | did not show an appreciable effect | – | – |
| CCCCCCCCCCCCCCCCCC(=O)O [SA, stearic acid, reference compound] | – | – | – | did not show an appreciable effect | – | – |
| CCCCCC=CC=CCCCCCCCCC(=O)O [10E, 12Z-CLA, 10,12-octadecadienoic acid] | 3 fold | 1.5-7.5 fold | effective inhibitor | – | 1.3 ± 0.41 (4) fold | HUVEC 6-ketoPGF1a formation fold-stimulation (IL-1β-treated HUVECs; listed as 10E, 12Z): 3.5 ± 2.7 fold; HUVEC 6-ketoPGF1a formation fold-stimulation (IL-1β-treated HUVECs; listed as 10E, 12Z isomer): not quite half as effective; increase in formation and release of TXB2 (Human platelets [4]): 30% |
